Structures are written as SMILES.

Test [1] has as its target T1, human RNR (purified R1 and R2 subunits) (Homo sapiens, UniProt P23921+P31350).
T1 construct: made in house; host or cells: Escherichia coli BL21(λDE3)pLysS, plasmids pETR1 and pETR2 (pET3a backbone)
T1 sequence (P23921 1-792): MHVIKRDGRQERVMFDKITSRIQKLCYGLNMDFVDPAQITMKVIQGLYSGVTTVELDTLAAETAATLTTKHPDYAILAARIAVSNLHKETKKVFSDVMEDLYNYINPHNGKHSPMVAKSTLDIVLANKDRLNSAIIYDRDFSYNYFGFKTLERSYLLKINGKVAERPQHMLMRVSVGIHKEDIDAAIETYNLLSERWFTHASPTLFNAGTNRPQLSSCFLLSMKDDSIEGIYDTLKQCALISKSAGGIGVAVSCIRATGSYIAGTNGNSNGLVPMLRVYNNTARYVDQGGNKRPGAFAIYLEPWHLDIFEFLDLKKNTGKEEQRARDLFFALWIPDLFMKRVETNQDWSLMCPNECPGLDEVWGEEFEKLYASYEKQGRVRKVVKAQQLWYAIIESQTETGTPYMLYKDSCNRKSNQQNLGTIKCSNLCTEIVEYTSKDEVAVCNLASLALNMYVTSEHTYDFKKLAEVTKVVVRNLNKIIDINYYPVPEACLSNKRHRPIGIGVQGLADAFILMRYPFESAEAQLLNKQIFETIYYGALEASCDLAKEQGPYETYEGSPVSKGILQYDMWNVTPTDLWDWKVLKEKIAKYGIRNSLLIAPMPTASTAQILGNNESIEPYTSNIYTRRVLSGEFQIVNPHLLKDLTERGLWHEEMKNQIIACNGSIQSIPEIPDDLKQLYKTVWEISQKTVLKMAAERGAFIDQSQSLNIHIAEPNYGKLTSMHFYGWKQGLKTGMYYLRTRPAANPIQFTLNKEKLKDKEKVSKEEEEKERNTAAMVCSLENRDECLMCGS
T1 sequence (P31350 1-389): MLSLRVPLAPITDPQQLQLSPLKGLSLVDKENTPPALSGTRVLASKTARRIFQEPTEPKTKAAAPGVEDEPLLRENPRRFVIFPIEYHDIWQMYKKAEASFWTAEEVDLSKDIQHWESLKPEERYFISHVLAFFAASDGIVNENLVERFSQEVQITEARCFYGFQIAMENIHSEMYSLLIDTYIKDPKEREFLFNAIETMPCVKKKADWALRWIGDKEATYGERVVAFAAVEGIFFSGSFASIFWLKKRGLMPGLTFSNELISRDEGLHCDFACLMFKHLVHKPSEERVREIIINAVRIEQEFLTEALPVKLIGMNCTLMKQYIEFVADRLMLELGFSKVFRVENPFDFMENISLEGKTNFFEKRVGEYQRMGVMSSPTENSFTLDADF
Kind of test: In vitro measurement of human RNR inhibitory activity (conversion of CDP to dCDP, HPLC). To be noted: 100 μM CDP, 37° C., 30 minutes, read-out: RNR Inhibition (IC50). The class given is biochemical.

The subject of another test is HeLa S3 cells. Nature of the test: Test for growth inhibition of HeLa S3 cells. The class given is cell-based. Particulars: Homo sapiens, HeLa S3, 72 h, HeLa S3 cells, 72 hours with test compound, Cell Proliferation Kit II; read-out: Cell growth inhibition (IC50). Here is the method: Test for Growth Inhibition of Hela S3 Cells
HeLa S3 cells prepared at 1×10^4 cells/ml in MEM culture medium containing 10% fetal bovine serum and 2 mM glutamine were added to each well of a 96-well microtiter plate (0.1 ml for each well). The cells were cultured at 37° C. in a CO2 incubator for 24 hours, and then 0.05 ml of test compound appropriately diluted with the above medium was added to each well, and then the mixture was cultured at 37° C. in a CO2 incubator for 72 hours. After the culture supernatant was removed, each well was washed with 0.1 ml of PBS buffer twice, and 0.1 ml of the aforementioned medium was added to each well again.
Cell Proliferation Kit II (Boehringer Mennheim) was used for measurement of cell number in each well. After a coloring reaction reagent was added, the plate was warmed to 37° C. in a CO2 incubator for 3 hours. Then, absorbances at 490 nm and 655 nm were measured by a microplate reader, and a value (difference of absorbance) was calculated for each well by subtracting the absorbance at […] from the absorbance at 490 nm. By comparing the differences of absorbance for cells without treatment and cells treated with a test compound at a known concentration, a concentration of test compound which inhibited the cell growth by 50% was calculated, and the value obtained was determined as IC50. The values of RNR inhibitory activity obtained in Example 8, and the values of cell growth inhibitory activity obtained in Example 9 are shown in the following tables (the compound numbers used in the tables correspond to the compound numbers shown in the aforementioned tables).

A word on the IC50: it is the concentration at which inhibition is half-maximal. In the case of `OCCCN(CCSc1ccc(O)cc1)CCSc1ccc(O)cc1` [Compound 95], the IC50 is 0.88 µM in test [1] and 3.56 µM in the test on HeLa S3 cells.

For the compound `O=C(CN(CCSc1ccc(O)cc1)CCSc1ccc(O)cc1)N1CCC[C@H]1CO` [Compound 206], the concentration for half-maximal inhibition (IC50) came to 1.13 µM in test [1] and 3.31 µM in the test with HeLa S3 cells.

Consider `CSCCN(CCSc1ccc(O)cc1)CCSc1ccc(O)cc1` [Compound 87], for which the IC50 was determined as 1.01 µM in test [1] and 2.57 µM with HeLa S3 cells.

For `O=C(CSc1ccc(O)cc1)C(=O)CSc1ccc(O)cc1` [Compound 186], the 50% inhibitory concentration (IC50) turned out to be 11.9 µM in test [1] and 56 µM in the test on HeLa S3 cells.

In the case of `O=C(c1ccccc1)N(CCSc1ccc(O)cc1)CCSc1ccc(O)cc1` [Compound 114], the IC50 in test [1] is 3.44 µM; in the test with HeLa S3 cells it was 2.74 µM.

As to `Oc1ccc(SCC(O)COCCOCC(O)CSc2ccc(O)cc2)cc1` (stereo not shown) [Compound 166], the 50% inhibitory concentration (IC50) is 3.09 µM in test [1] and 31.2 µM in the test with HeLa S3 cells.

Consider `Oc1ccc(SCCOCCOCCOCCOCCOCCSc2ccc(O)cc2)cc1` [Compound 173], for which the IC50 in test [1] worked out at 3.63 µM; with HeLa S3 cells, 12.9 µM.

As for `Oc1ccc(SCCC(O)CSc2ccc(O)cc2)cc1` (stereo not shown) [Compound 184], the IC50 was determined as 0.3 µM in test [1] and 2.46 µM with HeLa S3 cells.

In the case of `O=C(CN(CCSc1ccc(O)cc1)CCSc1ccc(O)cc1)N(CCO)CCO` [Compound 208], the IC50 in test [1] turned out to be 3.46 µM; with HeLa S3 cells it was 5.93 µM.

`Oc1ccc(SCSc2ccc(O)cc2)cc1` [Compound 132]: the concentration for half-maximal inhibition (IC50) in test [1] stood at 3.5 µM; in the test with HeLa S3 cells, 45.6 µM.

Take `CC(=O)N(CCSc1ccc(O)cc1)CCSc1ccc(O)cc1` [Compound 54]: the 50% inhibitory concentration (IC50) is 0.48 µM in test [1] and 4.63 µM in the test on HeLa S3 cells.

Take `O=C(CCSc1ccc(O)cc1)N(CCSc1ccc(O)cc1)CCSc1ccc(O)cc1` [Compound 52]: the values for the half-maximal inhibitory concentration (IC50) (in test [1]; in the test with HeLa S3 cells) were 4.38 µM and 6.5 µM, respectively.

As for `CC1(C)OCC(CN(CCSc2ccc(O)cc2)CCSc2ccc(O)cc2)O1` (stereo not shown) [Compound 200], the IC50 in test [1] turned out to be 4.2 µM; in the test with HeLa S3 cells it was 4.13 µM.

As for `O=C(c1ccccn1)N(CCSc1ccc(O)cc1)CCSc1ccc(O)cc1` [Compound 115], the IC50 was found to be 4.14 µM in test [1] and 6.14 µM in the test with HeLa S3 cells.

Regarding `Oc1ccc(SCCSc2ccc(O)cc2)cc1` [Compound 133], the values for the IC50 (in test [1]; in the test on HeLa S3 cells) were 2.27 µM and 14.5 µM, respectively.

For `Oc1ccc(SCCN(CCSc2ccc(O)cc2)Cc2c[nH]cn2)cc1` [Compound 196], the half-maximal inhibitory concentration (IC50) in test [1] amounted to 1.52 µM; with HeLa S3 cells it was 7.08 µM.

On to `Oc1ccc(SCC#CCSc2ccc(O)cc2)cc1` [Compound 160], for which the IC50 in test [1] amounted to 0.95 µM; in the test on HeLa S3 cells, 20.1 µM.

For the compound `COCCOCCN(CCSc1ccc(O)cc1)CCSc1ccc(O)cc1` [Compound 198], the IC50 in test [1] is 4.86 µM; in the test on HeLa S3 cells, 4.85 µM.

In the case of `O=C(CN(CCSc1ccc(O)cc1)CCSc1ccc(O)cc1)N1CCCCC1` [Compound 203], the concentration for half-maximal inhibition (IC50) in test [1] worked out at 3.18 µM; in the test on HeLa S3 cells it was 3.45 µM.

As to `CC(=O)CN(CCSc1ccc(O)cc1)CCSc1ccc(O)cc1` [Compound 81], the 50% inhibitory concentration (IC50) was 0.29 µM in test [1] and 1.23 µM in the test with HeLa S3 cells.

With `Oc1ccc(SSc2ccc(O)cc2)cc1` [Compound 131], the figures for the half-inhibitory concentration (IC50) (in test [1]; in the test with HeLa S3 cells) were 6.59 µM and 128 µM, respectively.

Regarding `Oc1ccc(SCCN(CCSc2ccc(O)cc2)Cc2cccnc2)cc1` [Compound 99], the 50% inhibitory concentration (IC50) was 2.79 µM in test [1] and 5.8 µM with HeLa S3 cells.

On to `CC(=O)NCCN(CCSc1ccc(O)cc1)CCSc1ccc(O)cc1` [Compound 83], for which the IC50 in test [1] came to 2.95 µM; with HeLa S3 cells, 5.17 µM.

Take `Oc1ccc(SCCN(CCSc2ccc(O)cc2)CC2CC2)cc1` [Compound 75]: the concentration for half-maximal inhibition (IC50) in test [1] stood at 1.66 µM; in the test with HeLa S3 cells, 3.56 µM.

In the case of `OC[C@@H]1OC(N(CCSc2ccc(O)cc2)CCSc2ccc(O)cc2)[C@H](O)[C@H](O)[C@H]1O` (stereo partly shown) [Compound 218], the IC50 worked out at 4.97 µM in test [1] and 23.2 µM in the test with HeLa S3 cells.

With `CC(CSc1ccc(O)cc1)Sc1ccc(O)cc1` (stereo not shown) [Compound 152], the IC50 in test [1] amounted to 5.14 µM; in the test on HeLa S3 cells it was 18 µM.

Source of the values: patent US6608061B2, “Bisaryl compound and medicament for cancer treatment comprising the same” (Kyoma Hakko Kogyo Co., Ltd., priority 1997, dated 2003).
